# Laboratory results as given in patent publication US20260226059A1, “HETEROCYCLIC COMPOUNDS AS PI3Ka INHIBITORS” (Pikavation Therapeutics, Inc., priority 2023, published 2026).
# Tested on: T47D (PIK3CA H1047R) cells
# Assay: PS473 AKT assay in T47D (PIK3CA H1047R) cells
# Type: cell-based
# Details: Homo sapiens, pSer473 AKT, DMEM with 2.5% FBS, compound treatment 2 h, read-out: T47D_IC50
# Protocol: T47D (PIK3CA H1047R) cells were cultured using 10-cm petri dishes with recommended medium plus 10% fetal bovine serum. One day before the assay, cells were seeded in 96-well plates. After overnight incubation, the medium was changed to DMEM with 2.5% fetal bovine serum (FBS) and the cells were treated with different concentrations of the compounds for 2 h. Cells were then fixed using 4% paraformaldehyde at room temperature for 20 min. Aspirate 4% paraformaldehyde, and wash cells using 1× regular phosphate buffered saline 3 times, 5 min each. Aspirate any residual phosphate buffered saline and block cells using 10% goat serum containing 1% bovine serum albumin and 0.3% Triton X-100 at room temperature for 1 h. Without any additional washing, primary antibodies (rabbit anti-pSer473 AKT) were diluted using blocking buffer and added at a final volume of 50 microliter per well. Keep assay plates with primary antibodies overnight at 4° C. Wash cells using 1× regular phosphate buffered saline 3 times, 5 min each. After the final wash, incubate cells with horseradish peroxidase-conjugated secondary antibodies (goat Anti-rabbit IgG) diluted using the same blocking buffer at room temperature for 1 h. Wash cells thoroughly using 1× regular phosphate buffered saline 3 times, 5 min each. Aspirate any residual phosphate buffered saline. Add Super-Signal ELISA Pico Chemiluminescent Substrate at a final volume of 100 microliter per well. Read plates on i3x Multi-Mode Microplate Reader and calculate IC50 values using GraphPad Prism software.
row,IC50 [µM],SMILES
1,1 to 5,"CCN1CCn2c1nc1c(C(C)Nc3ccccc3C(=O)O)cc(C)cc1c2=O (centres unmarked) [Example 1, 2-((1-(1-Ethyl-7-methyl-5-oxo-1,2,3,5-tetrahydroimidazo[2,1-b]quinazolin-9-yl)ethyl)amino)benzoic acid]"
2,< 1,"Cc1cc(C(C)Nc2ccc(Cl)nc2C(=O)O)c2nc3n(c(=O)c2c1)CCc1ccccc1-3 (centres unmarked) [Example 5, 6-Chloro-3-((1-(10-methyl-8-oxo-5,8-dihydro-6H-isoquinolino[1,2-b]quinazolin-12-yl)ethyl)amino)picolinic acid]"
3,< 1,"Cc1cc(C(C)Nc2ccc(C)nc2C(=O)O)c2nc3n(c(=O)c2c1)CCc1ccccc1-3 (centres unmarked) [Example 4, 6-Methyl-3-((1-(10-methyl-8-oxo-5,8-dihydro-6H-isoquinolino[1,2-b]quinazolin-12-yl)ethyl)amino)picolinic acid]"
4,< 1,"Cc1cc(C(C)Nc2ccccc2C(=O)O)c2nc3n(c(=O)c2c1)CCc1ccccc1-3 (centres unmarked) [Example 3, 2-((1-(10-Methyl-8-oxo-5,8-dihydro-6H-isoquinolino[1,2-b]quinazolin-12-yl)ethyl)amino)benzoic acid]"
5,< 1,"CCN1CCn2c1nc1c(C(C)Nc3ccc(Cl)nc3C(=O)O)cc(C)cc1c2=O (centres unmarked) [Example 2, 6-Chloro-3-((1-(1-ethyl-7-methyl-5-oxo-1,2,3,5-tetrahydroimidazo[2,1-b]quinazolin-9-yl)ethyl)amino)picolinic acid]"
